This note sets out measurements from patent US7803769B2 (priority 2006, dated 2010).

Bridge positions count the residues as written; N and C are the ends. Square brackets hold non-standard residues; d marks the D form. Ends that are not written are not given here. Peptide text beside a SMILES is read from it. 1Nal = N[C@@H](Cc1cccc2ccccc12)C(=O)O

For one test, the target named is human Kv1.3 channel (Homo sapiens, UniProt P22001). It is filed as cell-based.
In test [1] the test system is thapsigargin-induced IL-2 production in human whole blood.
The target in a further test is T1, human Kv1.3 (CHO) (Homo sapiens, UniProt P22001).
T1 construct: expressed in transfected cells
Description: cell-based.

For the next test, the target named is T2, human Kv1.1 (HEK293) (Homo sapiens, UniProt Q09470).
T2 construct: expressed in transfected cells; host or cells: HEK293
Put plainly: cell-based.

T1 sequence (P22001 whole entry): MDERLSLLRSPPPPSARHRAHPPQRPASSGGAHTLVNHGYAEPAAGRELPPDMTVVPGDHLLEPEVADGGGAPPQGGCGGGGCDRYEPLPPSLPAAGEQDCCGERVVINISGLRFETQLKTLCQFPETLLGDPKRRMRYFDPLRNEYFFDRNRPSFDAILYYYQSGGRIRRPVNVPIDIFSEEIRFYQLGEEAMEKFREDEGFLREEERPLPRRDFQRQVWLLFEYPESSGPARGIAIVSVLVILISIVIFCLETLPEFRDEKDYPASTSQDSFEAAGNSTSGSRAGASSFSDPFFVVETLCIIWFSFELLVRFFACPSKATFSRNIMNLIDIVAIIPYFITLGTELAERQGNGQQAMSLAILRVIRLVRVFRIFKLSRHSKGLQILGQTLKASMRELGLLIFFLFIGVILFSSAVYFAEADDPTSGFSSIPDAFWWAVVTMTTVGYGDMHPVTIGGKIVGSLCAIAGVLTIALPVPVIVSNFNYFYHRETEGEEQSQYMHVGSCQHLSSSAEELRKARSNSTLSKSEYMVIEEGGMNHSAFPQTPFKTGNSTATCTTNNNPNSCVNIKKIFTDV
Sequence of human Kv1.3 channel (P22001 whole entry): as above
T2 sequence (Q09470 whole entry): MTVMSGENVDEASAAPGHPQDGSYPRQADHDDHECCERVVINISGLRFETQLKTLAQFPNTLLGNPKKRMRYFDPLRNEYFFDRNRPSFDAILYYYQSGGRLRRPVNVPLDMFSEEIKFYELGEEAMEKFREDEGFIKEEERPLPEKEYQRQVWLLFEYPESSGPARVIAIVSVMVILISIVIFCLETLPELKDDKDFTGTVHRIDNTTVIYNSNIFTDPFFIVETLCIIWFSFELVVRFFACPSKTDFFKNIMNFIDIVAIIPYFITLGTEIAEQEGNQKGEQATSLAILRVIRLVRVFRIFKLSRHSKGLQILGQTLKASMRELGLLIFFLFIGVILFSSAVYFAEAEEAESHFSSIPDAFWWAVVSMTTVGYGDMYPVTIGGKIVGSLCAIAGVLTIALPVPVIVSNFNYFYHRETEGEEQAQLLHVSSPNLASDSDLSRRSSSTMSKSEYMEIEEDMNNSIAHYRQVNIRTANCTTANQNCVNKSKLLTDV

Turning to “Fc-L10-OSK1[K7S,E16K,K20D]: Fc-L10-OSK1 with K7S, E16K and K20D substitutions”, in the test with human Kv1.3 channel, the “block of human Kv1.3 current (in words)” value is listed as “significant decrease in potency as well as selectivity” and the “fold less potent than the synthetic OSK1 toxin peptide (Kv1.3)” value is given as “approximately 21 fold”.

For the molecule “Fc-L10-OSK1[K7S]: Fc-L10-OSK1 with lysine to serine at position 7”, in the test with human Kv1.3 channel, the “difference in Kv1.3 potency compared to Fc-L10-OSK1” value is given as 2 fold and the “fold less potent than the synthetic OSK1 toxin peptide (Kv1.3)” value was “approximately 10 fold”.

On to `CC[C@H](C)[C@@H]1NC(=O)[C@H](CCCCN)NC(=O)[C@@H](NC(=O)[C@H](CCCCN)NC(=O)[C@@H](NC(=O)[C@H](CC(N)=O)NC(=O)[C@@H](NC(=O)[C@@H](NC(=O)[C@@H](NC(=O)CN)C(C)C)[C@@H](C)CC)[C@@H](C)CC)C(C)C)CSSC[C@@H]2NC(=O)[C@H](CCCCN)NC(=O)CNC(=O)[C@H](Cc3ccccc3)NC(=O)[C@H](CCCNC(=N)N)NC(=O)[C@H](CCSC)NC(=O)CNC(=O)[C@H](C)NC(=O)[C@H](CCCCN)NC(=O)[C@H](CCCCN)NC(=O)[C@@H]3CSSC[C@@H](C(=O)N[C@H](C(=O)N4CCC[C@H]4C(=O)N[C@@H](CCCCN)C(=O)O)[C@@H](C)O)NC(=O)[C@H](Cc4c[nH]cn4)NC(=O)[C@H](CSSC[C@H](NC(=O)[C@H](CCC(N)=O)NC(=O)[C@H](CCCNC(=N)N)NC(=O)[C@H](CO)NC1=O)C(=O)N[C@@H](CC(C)C)C(=O)N[C@@H](CCC(=O)O)C(=O)N1CCC[C@H]1C(=O)N3)NC(=O)[C@H](CCCCN)NC(=O)CNC(=O)[C@H](CC(N)=O)NC(=O)[C@H](C)NC2=O` [OSK1[Ala-29]] (H-GVIINVKCKISRQCLEPCKKAGMRFGKCANGKCHCTPK-OH; disulfide 8-28, 14-33, 18-35), for which the “whole blood cytokine response (IL-2 and IFNg), blockade in words” value (“whole blood cytokine response” below) in test [1] is given as “several orders of magnitude more potent”.

What is called IC50 is the concentration that gives 50% inhibition. Lower therefore signals higher potency. Take `CC[C@H](C)[C@@H]1NC(=O)[C@H](CCCCN)NC(=O)[C@@H](NC(=O)[C@H](CCCCN)NC(=O)[C@@H](NC(=O)[C@H](CC(N)=O)NC(=O)[C@@H](NC(=O)[C@@H](NC(=O)[C@@H](NC(=O)CN)C(C)C)[C@@H](C)CC)[C@@H](C)CC)C(C)C)CSSC[C@@H]2NC(=O)[C@H](CCCCN)NC(=O)CNC(=O)[C@H](Cc3ccccc3)NC(=O)[C@H](CCCNC(=N)N)NC(=O)[C@H](CCSC)NC(=O)CNC(=O)[C@H](C)NC(=O)[C@H](Cc3cccc4ccccc34)NC(=O)[C@H](CCCCN)NC(=O)[C@@H]3CSSC[C@@H](C(=O)N[C@H](C(=O)N4CCC[C@H]4C(=O)N[C@@H](CCCCN)C(=O)O)[C@@H](C)O)NC(=O)[C@H](Cc4c[nH]cn4)NC(=O)[C@H](CSSC[C@H](NC(=O)[C@H](CCC(N)=O)NC(=O)[C@H](CCCNC(=N)N)NC(=O)[C@H](CO)NC1=O)C(=O)N[C@@H](CC(C)C)C(=O)N[C@@H](CCC(=O)O)C(=O)N1CCC[C@H]1C(=O)N3)NC(=O)[C@H](CCCCN)NC(=O)CNC(=O)[C@H](CC(N)=O)NC(=O)[C@H](CCSC)NC2=O` [K20Nal] (H-GVIINVKCKISRQCLEPCK[1Nal]AGMRFGKCMNGKCHCTPK-OH; disulfide 8-28, 14-33, 18-35): the values for the IC50 against human Kv1.3 (CHO) and against human Kv1.1 (HEK293) were 13.5 pM and < 1.52 pM, respectively.

As to `CC[C@H](C)[C@@H]1NC(=O)[C@H](CCCCN)NC(=O)[C@@H](NC(=O)[C@H](CCCCN)NC(=O)[C@H](Cc2cccc3ccccc23)NC(=O)[C@H](CC(N)=O)NC(=O)[C@@H](NC(=O)[C@@H](NC(=O)[C@@H](NC(=O)CN)C(C)C)[C@@H](C)CC)[C@@H](C)CC)CSSC[C@@H]2NC(=O)[C@H](CCCCN)NC(=O)CNC(=O)[C@H](Cc3ccccc3)NC(=O)[C@H](CCCNC(=N)N)NC(=O)[C@H](CCSC)NC(=O)CNC(=O)[C@H](C)NC(=O)[C@H](CCCCN)NC(=O)[C@H](CCCCN)NC(=O)[C@@H]3CSSC[C@@H](C(=O)N[C@H](C(=O)N4CCC[C@H]4C(=O)N[C@@H](CCCCN)C(=O)O)[C@@H](C)O)NC(=O)[C@H](Cc4c[nH]cn4)NC(=O)[C@H](CSSC[C@H](NC(=O)[C@H](CCC(N)=O)NC(=O)[C@H](CCCNC(=N)N)NC(=O)[C@H](CO)NC1=O)C(=O)N[C@@H](CC(C)C)C(=O)N[C@@H](CCC(=O)O)C(=O)N1CCC[C@H]1C(=O)N3)NC(=O)[C@H](CCCCN)NC(=O)CNC(=O)[C@H](CC(N)=O)NC(=O)[C@H](CCSC)NC2=O` [V6Nal] (H-GVIIN[1Nal]KCKISRQCLEPCKKAGMRFGKCMNGKCHCTPK-OH; disulfide 8-28, 14-33, 18-35), the IC50 is 21 pM against human Kv1.3 (CHO) and < 1.52 pM on human Kv1.1 (HEK293).

In the case of `CC[C@H](C)[C@@H]1NC(=O)[C@H](CCCCN)NC(=O)[C@@H](NC(=O)[C@H](CCCCN)NC(=O)[C@@H](NC(=O)[C@H](CC(N)=O)NC(=O)[C@@H](NC(=O)[C@H](Cc2cccc3ccccc23)NC(=O)[C@@H](NC(=O)CN)C(C)C)[C@@H](C)CC)C(C)C)CSSC[C@@H]2NC(=O)[C@H](CCCCN)NC(=O)CNC(=O)[C@H](Cc3ccccc3)NC(=O)[C@H](CCCNC(=N)N)NC(=O)[C@H](CCSC)NC(=O)CNC(=O)[C@H](C)NC(=O)[C@H](CCCCN)NC(=O)[C@H](CCCCN)NC(=O)[C@@H]3CSSC[C@@H](C(=O)N[C@H](C(=O)N4CCC[C@H]4C(=O)N[C@@H](CCCCN)C(=O)O)[C@@H](C)O)NC(=O)[C@H](Cc4c[nH]cn4)NC(=O)[C@H](CSSC[C@H](NC(=O)[C@H](CCC(N)=O)NC(=O)[C@H](CCCNC(=N)N)NC(=O)[C@H](CO)NC1=O)C(=O)N[C@@H](CC(C)C)C(=O)N[C@@H](CCC(=O)O)C(=O)N1CCC[C@H]1C(=O)N3)NC(=O)[C@H](CCCCN)NC(=O)CNC(=O)[C@H](CC(N)=O)NC(=O)[C@H](CCSC)NC2=O` [I3Nal] (H-GV[1Nal]INVKCKISRQCLEPCKKAGMRFGKCMNGKCHCTPK-OH; disulfide 8-28, 14-33, 18-35), the IC50 at human Kv1.3 (CHO) is 10.3 pM; against human Kv1.1 (HEK293), 2.34 pM.

Regarding “SEQ ID No: 4989: OSK1 analog without beta strand 1 (des 1-7), Table 42 (CKISRQCLKPCKDAGMRFGKCMNGKCHC-NH2; ends and bridges not checked)”, the “whole blood cytokine response” value in test [1] is “still retain activity in blocking inflammation”.

Turning to `CC[C@H](C)[C@@H]1NC(=O)[C@H](CCCCN)NC(=O)[C@@H](NC(=O)[C@H](CCCCN)NC(=O)[C@@H](NC(=O)[C@H](CC(N)=O)NC(=O)[C@@H](NC(=O)[C@@H](NC(=O)[C@H](Cc2cccc3ccccc23)NC(=O)CN)[C@@H](C)CC)[C@@H](C)CC)C(C)C)CSSC[C@@H]2NC(=O)[C@H](CCCCN)NC(=O)CNC(=O)[C@H](Cc3ccccc3)NC(=O)[C@H](CCCNC(=N)N)NC(=O)[C@H](CCSC)NC(=O)CNC(=O)[C@H](C)NC(=O)[C@H](CCCCN)NC(=O)[C@H](CCCCN)NC(=O)[C@@H]3CSSC[C@@H](C(=O)N[C@H](C(=O)N4CCC[C@H]4C(=O)N[C@@H](CCCCN)C(=O)O)[C@@H](C)O)NC(=O)[C@H](Cc4c[nH]cn4)NC(=O)[C@H](CSSC[C@H](NC(=O)[C@H](CCC(N)=O)NC(=O)[C@H](CCCNC(=N)N)NC(=O)[C@H](CO)NC1=O)C(=O)N[C@@H](CC(C)C)C(=O)N[C@@H](CCC(=O)O)C(=O)N1CCC[C@H]1C(=O)N3)NC(=O)[C@H](CCCCN)NC(=O)CNC(=O)[C@H](CC(N)=O)NC(=O)[C@H](CCSC)NC2=O` [V2Nal] (H-G[1Nal]IINVKCKISRQCLEPCKKAGMRFGKCMNGKCHCTPK-OH; disulfide 8-28, 14-33, 18-35), the IC50 on human Kv1.3 (CHO) worked out at 11.6 pM; against human Kv1.1 (HEK293), 2.46 pM.

In the case of `CC[C@H](C)[C@H](NC(=O)[C@H](C)NC(=O)CN)C(=O)N[C@H](C(=O)N[C@@H](CC(N)=O)C(=O)N[C@H](C(=O)N[C@@H](CCCCN)C(=O)N[C@H]1CSSC[C@@H]2NC(=O)[C@H](CCCCN)NC(=O)CNC(=O)[C@H](Cc3ccccc3)NC(=O)[C@H](CCCNC(=N)N)NC(=O)[C@H](CCSC)NC(=O)CNC(=O)[C@H](C)NC(=O)[C@H](CCCCN)NC(=O)[C@H](CCCCN)NC(=O)[C@@H]3CSSC[C@@H](C(=O)N[C@H](C(=O)N4CCC[C@H]4C(=O)N[C@@H](CCCCN)C(=O)O)[C@@H](C)O)NC(=O)[C@H](Cc4c[nH]cn4)NC(=O)[C@H](CSSC[C@H](NC(=O)[C@H](CCC(N)=O)NC(=O)[C@H](CCCNC(=N)N)NC(=O)[C@H](CO)NC(=O)[C@H]([C@@H](C)CC)NC(=O)[C@H](CCCCN)NC1=O)C(=O)N[C@@H](CC(C)C)C(=O)N[C@@H](CCC(=O)O)C(=O)N1CCC[C@H]1C(=O)N3)NC(=O)[C@H](CCCCN)NC(=O)CNC(=O)[C@H](CC(N)=O)NC(=O)[C@H](CCSC)NC2=O)C(C)C)[C@@H](C)CC` [V2A] (H-GAIINVKCKISRQCLEPCKKAGMRFGKCMNGKCHCTPK-OH; disulfide 8-28, 14-33, 18-35), the concentration for half-maximal inhibition (IC50) on human Kv1.3 (CHO) was 81.8 pM; against human Kv1.1 (HEK293), 9.94 pM.

B1: FcLoop-L2-ShK-L2: ShK inserted into the human IgG1 Fc-loop with 2-Gly linkers on both sides (protein)
chain: MDKTHTCPPCPAPELLGGPSVFLFPPKPKDTLMISRTPEVTCVVVDVSHEDPEVKFNWYVDGVEVHNAKTKPREEQYNSTYRVVSVLTVLHQDWLNGKEYKCKVSNKALPAPIEKTISKAKGQPREPQVYTLPPSRDELGGRSCIDTIPKSRCTAFQCKHSMKYRLSFCRKTCGTCGGTKNQVSLTCLVKGFYPSDIAVEWESNGQPENNYKTTPPVLDSDGSFFLYSKLTVDKSRWQQGNVFSCSVMHEALHNHYTQKSLSLSPGK
modifications: Definition of Artificial Sequence: Synthetic protein
For the molecule B1, the “whole blood cytokine response” value in test [1] is “potent blockade of the whole blood cytokine response in this assay, with IC50 values in the pM range”.

B2: FcLoop-L2-OsK1-L2: OsK1 inserted into the human IgG1 Fc-loop with 2-Gly linkers on both sides (protein)
chain: MDKTHTCPPCPAPELLGGPSVFLFPPKPKDTLMISRTPEVTCVVVDVSHEDPEVKFNWYVDGVEVHNAKTKPREEQYNSTYRVVSVLTVLHQDWLNGKEYKCKVSNKALPAPIEKTISKAKGQPREPQVYTLPPSRDELGGGVIINVKCKISRQCLEPCKKAGMRFGKCMNGKCHCTPKGGTKNQVSLTCLVKGFYPSDIAVEWESNGQPENNYKTTPPVLDSDGSFFLYSKLTVDKSRWQQGNVFSCSVMHEALHNHYTQKSLSLSPGK
modifications: Definition of Artificial Sequence: Synthetic protein
On to B2, for which the “whole blood cytokine response” value in test [1] was “potent blockade of the whole blood cytokine response in this assay, with IC50 values in the pM range”.
